Test results: US10640544B2, “Antibody-coupled cyclic peptide tyrosine tyrosine compounds as modulators of neuropeptide Y receptors” (JANSSEN PHARMACEUTICA NV, priority 2016, dated 2020)

Assays:
[1] = Single dose effect on food intake and body weight in Sprague-Dawley rats; format: in vivo, rat; parameters: body weight change: unit not given here; settings: single dose 0.3 nmol/kg s.c.
Procedure: Compound 1 was evaluated for its ability to reduce foot intake and body weight in Sprague-Dawley after a single dose. The animals were obtained from Charles River Labs (Wilmington, Mass.) at 200-225 g body weight and used within one week of delivery. They were housed one per cage on alpha dry bedding and a plastic tube for enrichment in a temperature-controlled room with 12-hour light/dark cycle. […] Animal weights were taken and recorded for each rat prior to dosing.
Body weights and food intake were measured 1, 2 and 3 days after dosing and the percentages of weight loss and reduction in food intake were calculated. […] All data are presented as the mean±SEM (Tables 18-20).

[2] = Weight loss in diet-induced obese mice: chronic dosing (body weight, fed blood glucose); format: in vivo, mouse; settings: DIO mice, after 8 days of treatment; 0.3 nmol/kg s.c. every day
Procedure: (§1) Compound 1 was evaluated for its ability to reduce foot intake and body weight and improve glucose homeostasis on repeat dosing in male DIO C57Bl/6 mice over a period of 8 days. Male DIO C57BL/6N mice (20 weeks of age, 14 weeks on high fat diet) were obtained from Taconic Laboratory. […] Animals were acclimated to the facility for at least one week prior to the start of the experiment.
(§2) The day prior to dosing, mice were grouped based on individual body weights. At 3:00-4:[…] for each of the next 8 days, animals and food intake were weighed. […] After 8 days, mice are fasted for 5 hours and then given a 2 g/kg bolus of glucose orally at t=0. At t=0, 30, 60, 90, and 120 minutes post glucose challenge blood glucose is measured and at t=0, 30, and 90 minutes blood in drawn to measure plasma insulin. […] All data are presented as the mean±SEM (FIG. 7, FIG. 8, and Tables 8-11).

[3] = OGTT in DIO mice after 8 days of treatment (blood glucose, insulin); format: in vivo, mouse; settings: 8 days treatment, 0.3 nmol/kg s.c. every day
Procedure: as §1, §2

Substance: Dulaglutide: long-acting GLP-1 receptor agonist, comparator
- Total Food Consumption over three days [1]: 87.4 ± 2.0
- body weight change ([1]; Day 0): 0.0 ± 0.0
- daily food intake ([1]; Day 0): 26.6 ± 0.8
- absolute body weight ([1]; Day 0, in g (unit assumed)): 270.3 ± 3.0
- body weight change ([1]; Day 1): 10.6 ± 1.6
- daily food intake ([1]; Day 1): 27.3 ± 1.2
- absolute body weight ([1]; Day 1, in g (unit assumed)): 280.8 ± 4.2
- body weight change ([1]; Day 2): 22.5 ± 0.8
- daily food intake ([1]; Day 2): 30.0 ± 0.7
- absolute body weight ([1]; Day 2, in g (unit assumed)): 292.47 ± 3.6
- body weight change ([1]; Day 3): 28.7 ± 0.6
- daily food intake ([1]; Day 3): 30.1 ± 0.7
- absolute body weight ([1]; Day 3, in g (unit assumed)): 299.0 ± 3.3
- body weight change ([1]; Day −1 (relative to Day 0)): −6.3 ± 0.8
- absolute body weight ([1]; Day −1, in g (unit assumed)): 264.0 ± 3.1
- fed Blood Glucose [2]: 114 ± 13 mg/dL
- blood glucose Delta AUC (OGTT) [3]: 6668 ± 1846 mg/dl/120 min
- blood glucose Total AUC (OGTT) [3]: 15758 ± 1054 mg/dl/120 min
- blood glucose during OGTT ([3]; 0 min after glucose challenge): 76 ± 9 mg/dL
- insulin during OGTT ([3]; 0 min after glucose challenge): 0.6 ± 0.1 ng/mL
- blood glucose during OGTT ([3]; 30 min after glucose challenge): 151 ± 14 mg/dL
- insulin during OGTT ([3]; 30 min after glucose challenge): 1.7 ± 0.2 ng/mL
- blood glucose during OGTT ([3]; 60 min after glucose challenge): 174 ± 17 mg/dL
- blood glucose during OGTT ([3]; 90 min after glucose challenge): 104 ± 10 mg/dL
- insulin during OGTT ([3]; 90 min after glucose challenge): 0.7 ± 0.2 ng/mL
- blood glucose during OGTT ([3]; 120 min after glucose challenge): 119 ± 9 mg/dL
